Reference: patent US7799821B2, “Therapeutic compounds” (Allergan, Inc., priority 2004, dated 2010)

Target: T1, hTP (Homo sapiens, UniProt P21731)
T1 construct: expressed in transfected cells; host or cells: HEK-293(EBNA)
T1 sequence (P21731 1-343): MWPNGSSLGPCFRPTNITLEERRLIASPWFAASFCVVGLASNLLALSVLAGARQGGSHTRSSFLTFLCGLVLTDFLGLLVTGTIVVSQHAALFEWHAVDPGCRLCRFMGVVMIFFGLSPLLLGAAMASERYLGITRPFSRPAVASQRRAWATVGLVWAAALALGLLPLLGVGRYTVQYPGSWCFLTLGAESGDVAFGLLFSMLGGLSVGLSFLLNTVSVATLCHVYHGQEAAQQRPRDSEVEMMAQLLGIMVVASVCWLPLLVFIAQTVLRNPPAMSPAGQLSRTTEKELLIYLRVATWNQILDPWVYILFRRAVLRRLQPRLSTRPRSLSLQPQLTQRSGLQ
Experiment: FLIPR calcium signal, hTP
Type: cell-based
Conditions: FLIPR Ca2+ signal, HEK-293(EBNA); read-out: FUNCTIONAL EC50 HTP
Protocol: (§1) HEK-293(EBNA) cells, stably expressing one type or subtype of recombinant human prostaglandin receptors (prostaglandin receptors expressed: hDP/Gqs5; hEP1; hEP2/Gqs5; hEP3A/Gqi5; hEP4/Gqs5; hFP; hIP; hTP), were cultured in 100 mm culture dishes in high-glucose DMEM medium containing 10% fetal bovine serum, 2 mM 1-glutamine, 250 μg/ml geneticin (G418) and 200 μg/ml hygromycin B as selection markers, and 100 units/ml penicillin G, 100 μg/ml streptomycin and 0.25 μg/ml amphotericin B. • (b) Calcium Signal Studies on the FLIPR™
(§2) Cells were seeded at a density of 5×10^4 cells per well in Biocoat® Poly-D-lysine-coated black-wall, clear-bottom 96-well plates (Becton-Dickinson) and allowed to attach overnight in an incubator at 37° C. Cells were then washed two times with HBSS-HEPES buffer (Hanks Balanced Salt Solution without bicarbonate and phenol red, 20 mM HEPES, pH 7.4) using a Denley Cellwash plate washer (Labsystems). After 45 minutes of dye-loading in the dark, using the calcium-sensitive dye Fluo-4 AM at a final concentration of 2 μM, plates were washed four times with HBSS-HEPES buffer to remove excess dye leaving 100 μl in each well. Plates were re-equilibrated to 37° C. for a few minutes.
(§3) Cells were excited with an Argon laser at 488 nm, and emission was measured through a 510-570 nm bandwidth emission filter (FLIPR™, Molecular Devices, Sunnyvale, Calif.). Drug solution was added in a 50 μl volume to each well to give the desired final concentration. The peak increase in fluorescence intensity was recorded for each well. On each plate, four wells each served as negative (HBSS-HEPES buffer) and positive controls (standard agonists: BW245C (hDP); PGE2 (hEP1; hEP2/Gqs5; hEP3A/Gqi5; hEP4/Gqs5); PGF2α (hFP); carbacyclin (hIP); U-46619 (hTP), depending on receptor). The peak fluorescence change in each drug-containing well was then expressed relative to the controls.
(§4) Compounds were tested in a high-throughput (HTS) or concentration-response (CoRe) format. In the HTS format, forty-four compounds per plate were examined in duplicates at a concentration of 10^−5 M. To generate concentration-response curves, four compounds per plate were tested in duplicates in a concentration range between 10^−5 and 10^−11 M. The duplicate values were averaged. In either, HTS or CoRe format each compound was tested on at least 3 separate plates using cells from different passages to give an n≧3.

| EC50 [µM] | Structure (SMILES) |
| --- | --- |
| > 10 | O=C(O)CCCCCC[C@H]1C(=O)C[C@@H](O)[C@@H]1c1ccc2c(c1)CCC2O (some centres unmarked) |
| > 10 | CCCC1(C(O)c2ccc([C@H]3[C@H](O)CC(=O)[C@@H]3C/C=C\CCCC(=O)OC)cc2)CCC1 (some centres unmarked) |

Same assay, conditions: read-out: FUNCTIONAL Ca2+ EC50 HTP

| EC50 [µM] | Structure (SMILES) |
| --- | --- |
| > 10 | CCCC1([C@@H](O)c2cccc([C@H]3CCC(=O)[C@@H]3C/C=C\CCCC(=O)OC)c2)CCC1 |

Target: T2, hDP/Gqs5 (Homo sapiens, UniProt Q13258)
T2 construct: expressed in transfected cells; host or cells: HEK-293(EBNA)
T2 sequence (Q13258 1-359): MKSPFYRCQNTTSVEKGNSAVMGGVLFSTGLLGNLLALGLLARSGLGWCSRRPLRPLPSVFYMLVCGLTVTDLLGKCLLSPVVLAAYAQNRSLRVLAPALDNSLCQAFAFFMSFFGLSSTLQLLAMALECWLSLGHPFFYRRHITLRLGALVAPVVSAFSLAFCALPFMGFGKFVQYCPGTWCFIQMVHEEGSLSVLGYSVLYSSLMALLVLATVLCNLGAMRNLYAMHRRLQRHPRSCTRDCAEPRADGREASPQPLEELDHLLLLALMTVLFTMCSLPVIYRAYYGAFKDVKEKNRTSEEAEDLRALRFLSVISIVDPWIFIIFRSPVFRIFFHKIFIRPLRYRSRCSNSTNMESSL
Experiment: FLIPR calcium signal, hDP
Type: cell-based
Conditions: FLIPR Ca2+ signal, HEK-293(EBNA); read-out: FUNCTIONAL EC50 HDP
Protocol: as §1, §2, §3, §4

| EC50 [µM] | Structure (SMILES) |
| --- | --- |
| > 10 | CCCC1(C(O)c2cccc(C3C(O)CC(=O)C3Cc3cccc(OCC(=O)O)c3)c2)CCC1 (centres unmarked) |

Same assay, conditions: read-out: FUNCTIONAL Ca2+ EC50 HDP

| EC50 [µM] | Structure (SMILES) |
| --- | --- |
| > 10 | CCCC1([C@@H](O)c2ccc([C@H]3CCC(=O)[C@@H]3C/C=C\CCCC(=O)O)cc2)CCC1 [drawing 191] |
